Results on 35 compounds are retold here after patent publication US11759455B2, “Substituted 1H-imidazo[4,5-b]pyridin-2(3H)-ones and their use as GLUN2B receptor modulators” (JANSSEN PHARMACEUTICA NV, priority 2016, dated 2023).

For orientation: IC50 means the point on the concentration scale where inhibition reaches its midpoint.

T1 sequence (Q13224 27-1484, other chains not shown): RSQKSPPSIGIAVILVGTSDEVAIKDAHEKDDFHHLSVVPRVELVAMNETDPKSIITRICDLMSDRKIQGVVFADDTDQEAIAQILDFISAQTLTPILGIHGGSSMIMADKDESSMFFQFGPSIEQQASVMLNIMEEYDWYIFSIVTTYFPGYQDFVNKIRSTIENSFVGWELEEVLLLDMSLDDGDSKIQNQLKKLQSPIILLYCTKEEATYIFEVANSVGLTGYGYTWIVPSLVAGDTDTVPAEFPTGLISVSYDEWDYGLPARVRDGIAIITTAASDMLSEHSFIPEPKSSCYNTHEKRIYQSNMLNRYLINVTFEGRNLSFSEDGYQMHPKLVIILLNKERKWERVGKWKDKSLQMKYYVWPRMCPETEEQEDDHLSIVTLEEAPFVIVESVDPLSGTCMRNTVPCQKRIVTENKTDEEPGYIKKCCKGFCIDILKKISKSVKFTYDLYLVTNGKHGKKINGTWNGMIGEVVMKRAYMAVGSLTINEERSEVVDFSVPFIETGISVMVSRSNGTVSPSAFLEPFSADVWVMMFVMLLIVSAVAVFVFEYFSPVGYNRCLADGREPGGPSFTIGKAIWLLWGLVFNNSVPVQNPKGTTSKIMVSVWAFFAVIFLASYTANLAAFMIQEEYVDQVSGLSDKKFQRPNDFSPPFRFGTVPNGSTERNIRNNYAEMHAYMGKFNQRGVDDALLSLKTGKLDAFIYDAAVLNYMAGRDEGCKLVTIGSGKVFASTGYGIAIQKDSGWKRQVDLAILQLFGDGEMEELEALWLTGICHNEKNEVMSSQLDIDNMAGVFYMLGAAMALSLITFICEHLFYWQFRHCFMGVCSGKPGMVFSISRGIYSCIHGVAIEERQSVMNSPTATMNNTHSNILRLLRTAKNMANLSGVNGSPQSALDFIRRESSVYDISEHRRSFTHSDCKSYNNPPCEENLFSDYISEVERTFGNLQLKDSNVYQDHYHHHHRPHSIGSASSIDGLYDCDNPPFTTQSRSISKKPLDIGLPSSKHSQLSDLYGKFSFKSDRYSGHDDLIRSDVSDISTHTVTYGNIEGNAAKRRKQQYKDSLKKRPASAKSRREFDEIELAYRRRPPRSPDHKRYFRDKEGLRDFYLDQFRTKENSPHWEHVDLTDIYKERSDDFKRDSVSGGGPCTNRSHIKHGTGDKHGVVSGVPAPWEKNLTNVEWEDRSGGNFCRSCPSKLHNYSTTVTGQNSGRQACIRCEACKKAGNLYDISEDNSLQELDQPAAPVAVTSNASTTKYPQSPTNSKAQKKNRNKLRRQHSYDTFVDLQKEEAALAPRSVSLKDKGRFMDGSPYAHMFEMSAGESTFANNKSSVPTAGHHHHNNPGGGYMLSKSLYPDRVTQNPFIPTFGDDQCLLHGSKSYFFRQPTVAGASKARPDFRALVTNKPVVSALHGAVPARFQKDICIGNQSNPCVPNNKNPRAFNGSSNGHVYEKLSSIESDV

The first experiment addresses T1, human GluN1/GluN2B NMDA receptors (Homo sapiens, UniProt Q13224).
T1 construct: expressed in transfected cells
Briefly: Cell-based calcium flux (FLIPR) assay on cloned human NR1/NR2B ion channels expressed in mammalian cells (standard and HTS buffer variants).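 Further: stable Tet-On inducible cell line, Ca2+ influx triggered by glutamate at about EC40 plus 10 µM glycine, fluorescent dye read-out over 5 min, normalized to control wells.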 As to conditions: HTS assay buffer (1.5 mM MgCl2 in dye loading buffer; 150 mM NaCl, 3 mM KCl in assay buffer), human GluN1/GluN2B, read-out: NR2B IC50 (μM) HTS assay. (In general: A change in cytosolic calcium serves as a functional read-out for many receptors and channels.)
Regarding `COc1cc(Cn2c(=O)[nH]c3ncc(-c4c(F)cccc4OC)cc32)cc(OC)c1` [Example 509, 1-[(3,5-Dimethoxyphenyl)methyl]-6-(2-fluoro-6-methoxy-phenyl)-3H-imidazo[4,5-b]pyridin-2-one], the IC50 came out at 0.884 µM. On the same count and under the same terms, for `COc1cc(Cn2c(=O)[nH]c3ncc(-c4cccc(C(F)(F)F)c4)cc32)cc(OC)c1` [Example 510, 1-[(3,5-Dimethoxyphenyl)methyl]-6-[3-(trifluoromethyl)phenyl]-3H-imidazo[4,5-b]pyridin-2-one] the value was 17.4 µM; for `CC(C)c1ccc(Cn2c(=O)[nH]c3ncc(-c4ccc(Cl)cc4)cc32)cc1` [Example 511, 6-(4-Chlorophenyl)-1-[(4-isopropylphenyl)methyl]-3H-imidazo[4,5-b]pyridin-2-one], > 29 µM; for `COc1ccnc(Cn2c(=O)[nH]c3ncc(-c4ccc(C(C)(C)C)cc4)cc32)c1OC` [Example 512, 6-(4-tert-Butylphenyl)-1-[(3,4-dimethoxy-2-pyridyl)methyl]-3H-imidazo[4,5-b]pyridin-2-one], > 29 µM. The same measure, in the same setting: for `Cc1noc(C)c1Cn1c(=O)[nH]c2ncc(-c3cccc(C#N)c3)cc21` [Example 513, 3-[1-[(3,5-Dimethylisoxazol-4-yl)methyl]-2-oxo-3H-imidazo[4,5-b]pyridin-6-yl]benzonitrile] the value was > 29 µM; for `CCOc1ccc(F)cc1-c1cnc2[nH]c(=O)n(Cc3c(C)noc3C)c2c1` [Example 514, 1-[(3,5-Dimethylisoxazol-4-yl)methyl]-6-(2-ethoxy-5-fluoro-phenyl)-3H-imidazo[4,5-b]pyridin-2-one], > 29 µM; for `COc1ccc(-c2cnc3[nH]c(=O)n(Cc4cc(C)on4)c3c2)cc1C` [Example 515, 6-(4-Methoxy-3-methyl-phenyl)-1-[(5-methylisoxazol-3-yl)methyl]-3H-imidazo[4,5-b]pyridin-2-one], 0.156 µM.

The experiment is the same for the next values; noted with them: standard assay buffer (0.5 mM MgCl2 in dye loading buffer; 137 mM NaCl, 4 mM KCl in assay buffer), human GluN1/GluN2B, read-out: NR2B IC50 (μM) standard assay.
With `Cc1cc(C)cc(-c2cnc3[nH]c(=O)n(Cc4cc(C)on4)c3c2)c1` [Example 516, 6-(3,5-Dimethylphenyl)-1-[(5-methylisoxazol-3-yl)methyl]-3H-imidazo[4,5-b]pyridin-2-one], the 50% inhibitory concentration (IC50) came out at 0.491 µM. Still for that read-out and setting: for `CCOc1ccccc1-c1cnc2[nH]c(=O)n(Cc3cc(C)on3)c2c1` [Example 517, 6-(2-Ethoxyphenyl)-1-[(5-methylisoxazol-3-yl)methyl]-3H-imidazo[4,5-b]pyridin-2-one] the value was 0.709 µM; for `COc1ccc(-c2cnc3[nH]c(=O)n(Cc4cc(C)on4)c3c2)c(OC)c1` [Example 518, 6-(2,4-Dimethoxyphenyl)-1-[(5-methylisoxazol-3-yl)methyl]-3H-imidazo[4,5-b]pyridin-2-one], 0.808 µM. Same read-out and setting: for `COc1ccc(-c2cnc3[nH]c(=O)n(Cc4cc(C)on4)c3c2)cc1F` [Example 519, 6-(3-Fluoro-4-methoxy-phenyl)-1-[(5-methylisoxazol-3-yl)methyl]-3H-imidazo[4,5-b]pyridin-2-one] the value was 0.139 µM.

As for `COc1cc(F)ccc1-c1cnc2[nH]c(=O)n(Cc3cc(C)on3)c2c1` [Example 520, 6-(4-Fluoro-2-methoxy-phenyl)-1-[(5-methylisoxazol-3-yl)methyl]-3H-imidazo[4,5-b]pyridin-2-one], the concentration for half-maximal inhibition (IC50) was found to be 0.019 µM. `CCOc1ccc(F)cc1-c1cnc2[nH]c(=O)n(Cc3cc(C)on3)c2c1` [Example 521, 6-(2-Ethoxy-5-fluoro-phenyl)-1-[(5-methylisoxazol-3-yl)methyl]-3H-imidazo[4,5-b]pyridin-2-one]: the IC50 worked out at 0.132 µM.

With `Cc1cc(Cn2c(=O)[nH]c3ncc(-c4ccc(F)cc4C)cc32)no1` [Example 522, 6-(4-Fluoro-2-methyl-phenyl)-1-[(5-methylisoxazol-3-yl)methyl]-3H-imidazo[4,5-b]pyridin-2-one], the IC50 was determined as 0.034 µM. `Cc1cc(Cn2c(=O)[nH]c3ncc(-c4cc(F)cc(F)c4)cc32)no1` [Example 523, 6-(3,5-Difluorophenyl)-1-[(5-methylisoxazol-3-yl)methyl]-3H-imidazo[4,5-b]pyridin-2-one]: the IC50 is 0.133 µM. As to `Cn1c(=O)n(CC(=O)NCCCCl)c2cc(-c3ccc(C(F)(F)F)s3)cnc21` [Example 532, N-(3-Chloropropyl)-2-[3-methyl-2-oxo-6-[5-(trifluoromethyl)-2-thienyl]imidazo[4,5-b]pyridin-1-yl]acetamide], the IC50 came to 0.862 µM. On the same count and under the same terms, the figure for `CN(C)C(=O)Cn1c(=O)n(C)c2ncc(-c3ccc(F)c(C(F)F)c3)cc21` [Example 533, 2-[6-[3-(Difluoromethyl)-4-fluoro-phenyl]-3-methyl-2-oxo-imidazo[4,5-b]pyridin-1-yl]-N,N-dimethyl-acetamide] is 0.025 µM; for `O=C(Cn1c(=O)n(CF)c2ncc(-c3ccc(C(F)(F)F)s3)cc21)N1CCC1` [Example 534, 1-[2-(Azetidin-1-yl)-2-oxo-ethyl]-3-(fluoromethyl)-6-[5-(trifluoromethyl)-2-thienyl]imidazo[4,5-b]pyridin-2-one] it is 0.036 µM. `O=C(Cn1c(=O)n(CCF)c2ncc(-c3ccc(C(F)(F)F)s3)cc21)N1CCC1` [Example 535, 1-[2-(Azetidin-1-yl)-2-oxo-ethyl]-3-(2-fluoroethyl)-6-[5-(trifluoromethyl)-2-thienyl]imidazo[4,5-b]pyridin-2-one]: the IC50 was found to be 0.106 µM. The same measure, in the same setting: the figure for `O=C(Cn1c(=O)[nH]c2ncc(-c3cccc(C(F)(F)F)c3)cc21)N1CC(CCF)C1` [Example 536, 1-[2-[3-(2-Fluoroethyl)azetidin-1-yl]-2-oxo-ethyl]-6-[3-(trifluoromethyl)phenyl]-3H-imidazo[4,5-b]pyridin-2-one] is 0.163 µM; for `CCC(=O)Cn1c(=O)[nH]c2ncc(-c3cccc(F)n3)cc21` [Example 537, 6-(6-Fluoro-2-pyridyl)-1-(2-oxobutyl)-3H-imidazo[4,5-b]pyridin-2-one] it is 0.273 µM.

`O=C(Cn1c(=O)[nH]c2ncc(-c3ccc(OCCF)c(C(F)(F)F)c3)cc21)N1CCC1` [Example 538, 1-[2-(Azetidin-1-yl)-2-oxo-ethyl]-6-[4-(2-fluoroethoxy)-3-(trifluoromethyl)phenyl]-3H-imidazo[4,5-b]pyridin-2-one]: the IC50 stood at 0.24 µM. On to `O=C(Cn1c(=O)[nH]c2ncc(-c3cc(OCCF)cc(C(F)(F)F)c3)cc21)N1CCC1` [Example 539, 1-[2-(Azetidin-1-yl)-2-oxo-ethyl]-6-[3-(2-fluoroethoxy)-5-(trifluoromethyl)phenyl]-3H-imidazo[4,5-b]pyridin-2-one], for which the 50% inhibitory concentration (IC50) was determined as 0.333 µM.

For `Cn1c(=O)n(Cc2cccnn2)c2cc(-c3ccc(F)c(C(F)F)c3)cnc21` [Example 541, 6-[3-(Difluoromethyl)-4-fluoro-phenyl]-3-methyl-1-(pyridazin-3-ylmethyl)imidazo[4,5-b]pyridin-2-one], the IC50 amounted to 0.022 µM.

As to `Cn1c(=O)n(Cc2cccnn2)c2cc(-c3ccc(F)c(OC(F)F)c3)cnc21` [Example 542, 6-[3-(Difluoromethoxy)-4-fluoro-phenyl]-3-methyl-1-(pyridazin-3-ylmethyl)imidazo[4,5-b]pyridin-2-one], the 50% inhibitory concentration (IC50) was found to be 0.016 µM. Regarding `Cn1c(=O)n(Cc2cccnn2)c2cc(-c3ccc(Cl)c(OC(F)F)c3)cnc21` [Example 543, 6-[4-Chloro-3-(difluoromethoxy)phenyl]-3-methyl-1-(pyridazin-3-ylmethyl)imidazo[4,5-b]pyridin-2-one], the IC50 was found to be 0.028 µM. On to `Cn1c(=O)n(Cc2cncc(F)c2)c2cc(-c3ccc(Cl)c(OC(F)F)c3)cnc21` [Example 544, 6-[4-Chloro-3-(difluoromethoxy)phenyl]-1-[(5-fluoro-3-pyridyl)methyl]-3-methyl-imidazo[4,5-b]pyridin-2-one], for which the half-maximal inhibitory concentration (IC50) came out at 0.09 µM. For `Cn1c(=O)n(Cc2csnn2)c2cc(-c3ccc(F)c(F)c3)cnc21` [Example 545, 6-(3,4-Difluorophenyl)-3-methyl-1-(thiadiazol-4-ylmethyl)imidazo[4,5-b]pyridin-2-one], the IC50 came out at 0.512 µM. The same measure, in the same setting: for `Cn1c(=O)n(Cc2cncc(F)c2)c2cc(-c3ccc(F)c(C(F)F)c3)cnc21` [Example 546, 6-[3-(Difluoromethyl)-4-fluoro-phenyl]-1-[(5-fluoro-3-pyridyl)methyl]-3-methyl-imidazo[4,5-b]pyridin-2-one] the value was 0.024 µM. Same read-out and setting: for `Cn1c(=O)n(Cc2cncc(F)c2)c2cc(-c3ccc(F)c(OC(F)F)c3)cnc21` [Example 547, 6-[3-(Difluoromethoxy)-4-fluoro-phenyl]-1-[(5-fluoro-3-pyridyl)methyl]-3-methyl-imidazo[4,5-b]pyridin-2-one] the value was 0.036 µM; for `Cn1c(=O)n(Cc2csnn2)c2cc(-c3cccc(C(F)(F)F)c3)cnc21` [Example 548, 3-Methyl-1-(thiadiazol-4-ylmethyl)-6-[3-(trifluoromethyl)phenyl]imidazo[4,5-b]pyridin-2-one], 0.185 µM; for `Cn1cc(Cn2c(=O)n(C)c3ncc(-c4ccc(F)c(F)c4)cc32)nn1` [Example 549, 6-(3,4-Difluorophenyl)-3-methyl-1-[(1-methyltriazol-4-yl)methyl]imidazo[4,5-b]pyridin-2-one], 0.467 µM.

For `Cn1cc(Cn2c(=O)n(C)c3ncc(-c4ccc(F)c(F)c4)cc32)cn1` [Example 550, 6-(3,4-Difluorophenyl)-3-methyl-1-[(1-methylpyrazol-4-yl)methyl]imidazo[4,5-b]pyridin-2-one], the half-maximal inhibitory concentration (IC50) came out at 0.697 µM. Same read-out and setting: the figure for `Cn1cc(Cn2c(=O)n(C)c3ncc(-c4cccc(C(F)(F)F)c4)cc32)cn1` [Example 551, 3-Methyl-1-[(1-methylpyrazol-4-yl)methyl]-6-[3-(trifluoromethyl)phenyl]imidazo[4,5-b]pyridin-2-one] is 0.19 µM; for `Cn1cc(Cn2c(=O)n(C)c3ncc(-c4cccc(C(F)(F)F)c4)cc32)nn1` [Example 552, 3-Methyl-1-[(1-methyltriazol-4-yl)methyl]-6-[3-(trifluoromethyl)phenyl]imidazo[4,5-b]pyridin-2-one] it is 0.13 µM.
